Results on five compounds are retold here after US20110087153A1, “Transdermal Methods And Systems For The Delivery Of Rizatriptan” (priority 2009, published 2011).

Molecules are shown by their SMILES. Bounds are passed on as bounds.

For data set [1] the following is noted: cited from earlier work.
Data set [2] is described as follows: Permeation through dialysis membrane (iontophoresis side-by-side diffusion cells). The data set is classed as in vitro ADME. As to the method: Ionotophoresis side-by side diffusion cells with 9 mm diameter opening were obtained from PermeGear. The current clamps with PC control were provided by NuPathe, Inc. The temperature controller was from Henke. 2.0 mm diameter Zinc and Silver were obtained from Alpha Aesar. Sumatriptan, Zolmitriptan and Rizatriptan wore provided by NuPathe. Sodium chloride was obtained from Fisher Scientific,
A donor solution of 4% sumatriptan succinate in 0.9% NaCl was prepared. The receiver solution was 0.9% Sodium chloride in water. A Millipore 1000 mw cutoff membrane were used as the membrane. The glossy side of the membrane faced the donor compartment. The volume of the donor and receiver solution was 3.0 ml. 0.5 mm zinc wire was placed in the donor compartment and 2.0 mm silver wire was placed in the receiver compartment. The temperature of the apparatus was maintained at 33° C.
Ketoprofen was obtained from Spectrum Chemical. A 2% ketoprofen donor solution was made by dissolving in 0.1 N NaOH.
Three cells were clamped at 2 mAmps/cm^2 (1.27 mAmp/cell), 3 cells were clamped at 2 mAmp/cm^2 with the electrodes reversed, 3 cells (the control cells) were not clamped.
At each sampling point 2 ml was withdrawn from the receiver compartment and was replaced with 0.9% Sodium Chloride. Each sample was diluted using 0.9% NaCl to be within the standard curve. Absorbance was measured using a UV spectrophotometer with a 1 cm quartz cuvette at 282 nm. […]

A short description of data set [3]: Iontophoresis properties (charge and molecular weight analysis). It is filed as physicochemical. The text has this:
This is because the diffusion and permeation through a hydrophilic membrane are dependent on molecular weight, radius of the molecule and the ionic drag the molecule has with the membrane.

Data set [4] is described as follows: Permeation of compound through human cadaver skin (iontophoresis, drug solutions). The data set is classed as in vitro ADME. The conditions noted are these: 2 mAmp/cm^2, 2% zolmitriptan, 4% rizatriptan, 4% sumatriptan solutions (FIG. 5). As to the method: Human cadaver skin was obtained from Allosource. The skin was maintained at −70° C. prior to use. A portion of skin was thawed in 0.9% NaCl solution for 30 minutes. The skin was towel dried and cut into 2 cm square sections. The skin was mounted with the epidermis side toward the donor chamber in the Permeagear 0.9 cm diameter side-by-side diffusion cells.
A solution of 2% zolmitriptan was made by dissolving zolmitriptan in 0.1 N HCl. A 4% sumatriptan solution was made by dissolving sumatriptan in 0.1% NaCl. The 4% rizatriptan solution was made by dissolving the rizatriptan in 0.1% NaCl
Three cells were dosed with 2% zolmitriptan, three cells were dosed with 4% rizatriptan, and two cells were dosed with 4% sumatriptan. Normal saline solution was used as the receiver solution. The cells were clamped at 1.27 mAmp (2 mAmp/cm^2). 2 ml of each receiver compartment was sampled every 30 minutes and replaced with normal saline solution. One cell of the rizatriptan iontophoresis and one cell of sumatriptan iontophoresis were lost during the study due to holes in the skin.
Each 2 ml sample was diluted 1 to 100 with water. Zolmitriptan and sumatriptan were assayed by UV at 222 nm and 282 nm respectively. Rizatriptan was assay by HPLC as previously described.

A short description of data set [5]: Permeation of formulated product through human cadaver skin (iontophoresis, gel formulations). The data set is classed as in vitro ADME. Conditions: for Lag time: human cadaver skin, gel with 3.4% lauric acid, 2 mAmp/cm^2. On the procedure:
Brij 30 (Laureth-4) and adipic acid were obtained from Fisher Scientific. Eudragit E*PO was obtained from Evonik. Human cadaver skin was thawed in 0.9% NaCl for 30 minutes and patted dry. The skin was cut into 2 cm square sections. The epidermis was placed towards the donor compartment of a […] PermeGear side-by-side diffusion cell. The donor gel was placed in the donor compartment and 3 ml of normal saline solution was placed in the receiver compartment. Three cells were dosed with zolmitriptan with 3.4% lauric acid, three cells were dosed with rizatriptan with 3.4% lauric acid and two cells were dosed with rizatriptan with 3.4% Brij 30. The cells were clamped at 1.27 mAmp (2 mAmp/cm^2). Two ml of each receiver compartment was sampled every 30 minutes and replaced with normal saline solution. Each 2 ml sample was diluted 1 to 100 with water. Zolmitriptan and sumatriptan were assayed by UV at 222 nm Rizatriptan was assayed by HPLC as previously described. Additional analysis of the permeation data was conducted to find the amount of time to dose 5 mg of drug based on reasonable patch areas, and is shown in Table 4. […] However, as was observed by the previous permeation data, zolmitriptan would need a total of 43 minutes when the lag-time is considered compared to 19 minutes for rizatriptan when the lag time is considered.

Data set [6] in a line: Oxidation stability for rizatriptan under 2 mA current. The data set is classed as physicochemical. The conditions noted are these: for Rizatriptan concentration after exposure to 2 mAmp current: 0.9% NaCl. As to the method: A drug stock solution was made by dissolving 2.8 mg of rizatriptan benzoate in 0.9% NaCl to a volume of 50 mL. The working standard was prepared by diluting 0.5 ml of the stock solution to 10 ml with 0.9% NaCl. This produced a final concentration of 2.8 mcg/ml, for the working standard.
A solution was made by dissolving 0.5000 g of rizatriptan benzoate in 0.9% NaCl to a final volume of 50 mL. A 1 ml sample of this solution was kept for future assay. The remaining solution was placed in a beaker covered with parafilm Zinc wire (Cathode) and silver wire (anode) were passed through the parafilm and placed in the drug solution. Current of 2 mA was passed through the solution. Samples of 1 mL each were withdrawn every 30 minutes for 5.5 hours.
A 0.1 mL volume from each sample was diluted with 15 mL of 0.9% NaCl. A 1 ml volume of this dilution was then further diluted to 10 ml using 0.9% NaCl. Similarly, a 0.1 ml volume of the initial solution was diluted with 15 mL of 0.9% NaCl. A 1 ml volume of this dilution was then diluted to 10 ml with 0.9% NaCl.

Where [7] appears, read: 1000 mwco dialysis membrane, 33° C., UV assay.
Where [8] appears, read: 1000 mwco dialysis membrane, 33° C., UV assay, listed as ketoprofen.

Regarding `CCCCCCCCCCCC(=O)O` [Lauric acid], the pKa entry in data set [1] is on record as “around 4.9”.
Turning to `CNS(=O)(=O)Cc1ccc2[nH]cc(CCN(C)C)c2c1` [Sumatriptan], in data set [2] (not told), the “Flux, Passive diffusion (No current)” value is recorded as 0.58 mcg/cm^2/min and the “Flux, Reversed Electrodes (Current reversed at 2 mAmp/cm^2)” value (from here on “Flux, Reversed Electrodes”) worked out at 0.11 mcg/cm^2/min. Moreover, in data set [3], the “Ionizable Nitrogens” value turned out to be 2 and the “MW/charge Ratio” value is on record as 147.7.
Take `CC(C(=O)O)c1cccc(C(=O)c2ccccc2)c1` (centres unmarked) [Ketoprofen]: in data set [2] (setting [7]), the “Flux, Iontophoresis (2 mAmp/cm^2)” value is on record as 8.24 mcg/cm^2/min; the “Flux, Passive diffusion (No current)” value was found to be 7.41 mcg/cm^2/min; the “Flux, Reversed Electrodes” value is 11.66 mcg/cm^2/min. For the same compound, in data set [2] (setting [8]), the “Flux, Iontophoresis (2 mAmp/cm^2)” value is listed as “less than the passive diffusion”; the “Flux, Passive diffusion (No current)” value is listed as “substantial”; the “Flux, Reversed Electrodes” value is recorded as “greatest flux”. In addition, the “Ratio of Iontophoresis to Passive Diffusion” value in data set [2] (1000 mwco dialysis membrane, UV assay) worked out at 1.6.
As to `CN(C)CCc1c[nH]c2ccc(Cn3cncn3)cc12` [Rizatriptan], in data set [4], the “Skin permeation by iontophoresis” value was “greater skin permeation than sumatriptan and zolmitriptan”. Moreover, the Lag time in data set [5] is 9 min. The “Total time to deliver 5 mg when the lag time is considered” value in data set [5] was determined as 19 min. For the same compound, the “Time in which a dose (5 mg) can be delivered” value in data set [5] (suggested by the results of the formulation studies) is “about 45 minutes”. Moreover, the “Rizatriptan concentration after exposure to 2 mAmp current” value in data set [6] (0 min) worked out at 10.000 mg/mL; in data set [6] (30 min), 10.041 mg/mL; in data set [6] (60 min), 9.829 mg/mL; in data set [6] (90 min), 9.909 mg/mL; in data set [6] (120 min), 9.782 mg/mL; in data set [6] (150 min) it was 9.942 mg/mL. Moreover, the “Rizatriptan concentration after exposure to 2 mAmp current” value in data set [6] (180 min) is on record as 9.875 mg/mL; in data set [6] (210 min), 9.801 mg/mL; in data set [6] (240 min), 9.758 mg/mL; in data set [6] (270 min) it was 9.963 mg/mL; in data set [6] (300 min) it was 9.216 mg/mL; in data set [6] (330 min), 9.389 mg/mL. Also, the “Exposure time after which degradation becomes significant” value in data set [6] (2 mA current) was greater than 4 h. The compound further returned a Rate of degradation in data set [6] (2 mA current, regression with all data) of roughly 16 µg/mL/min. In data set [6] (during the 5.5 hour exposure to 2 mA current), the Degradation result was “approximately 7%”. For the same compound, the “Ionizable Nitrogens” value in data set [3] came out at 3. Besides, in data set [3], the “MW/charge Ratio” value came to 89.8.
Regarding `CN(C)CCc1c[nH]c2ccc(C[C@H]3COC(=O)N3)cc12` [Zolmitriptan], in data set [2] (not told), the “Flux, Passive diffusion (No current)” value is 3.32 mcg/cm^2/min; the “Flux, Reversed Electrodes” value is given as 0.05 mcg/cm^2/min; the “Ratio of Iontophoresis to Passive Diffusion” value is 11.5. Moreover, the “Skin permeation by iontophoresis” value in data set [4] is reported as “very comparable to the permeation of sumatriptan via iontophoresis”. For the same compound, in data set [5], the Lag time was 20 min and the “Total time to deliver 5 mg when the lag time is considered” value was determined as 43 min. In data set [3], the “Ionizable Nitrogens” value is listed as 3 and the “MW/charge Ratio” value is recorded as 92.8.
